What was measured:
[1] = application to skin of rats; cited from earlier work
[2] = Experiment 2: uptake of [14C]-vitamin D3 tracer into serum and conversion to [14C]-25(OH)D3; assay type: in vivo, Male Wistar rats
Description: One dose of [carbon-14]-labelled vitamin D3 was given at the time of the last of 14 daily doses of nonradioactive vitamin D3. The graphs show the uptake and metabolism of one [^14 C]-vitamin D3 dose during the course of gastric or dermal supplementation with vitamin D3. The tracer was given in addition to the usual, 8 μg/day vitamin D3 dose, and by the same route. Radioactivity in serum was isolated by chromatography to measure that which elutes as vitamin D3, or as […], Each point is the mean of results from six rats;
Uptake of radioactive vitamin D3 from skin or gut during the longer term treatment with vitamin D3 at 20 nmol/day.
The previous experiment 1 involved only one acute dose of a minute, tracer amount of vitamin D3. It remained possible that dermal application could not deliver a larger, more nutritionally relevant amount of vitamin D3. This experiment 2 looked at what happens when vitamin D3 is given during the course of daily treatment with a moderate amount of vitamin D3.
After 30 days, the rats were divided into three groups of 6: one group continued with no supplement, one group was given daily vitamin D3 supplement, 8 μg/day either by gastric tube, the third received the supplement by application to the skin in 50 μL ethanol. Vitamin D3 was given for 3 wk. The day before the rats were killed, the vitamin D3 dose was supplemented with [^14 C]-labelled vitamin D3, 915,000 cpm per rat. Blood was obtained from the tail of each rat at 3 h, 9 h, and by heart puncture when the rats were anesthetized for killing, 24 h after giving the tracer. The blood was extracted and chromatographed to distinguish [^14 C]-vitamin D3 from the [^14 C]-25(OH)D3generated from it. Radioactivity was also measured in the liver, kidney, and adipose tissue. Serum nonradioactive 25(OH)D3 was also measured.

[3] = Experiment 5: [14C]-vitamin D3 left on skin at application site; assay type: in vivo, Male Wistar rats; conditions: for % [14C]-D3 Left on Skin: 2 weeks, 1440 min
Description: This experiment was to compare potential toxic effects of vitamin D3 given for a 2 wk period, at the near-fatal dose of 800 μg per day by gastric tube, or by dermal administration at 800 μg/day or 2600 μg/day. Another goal was find evidence of saturable dermal uptake by including [^14 C]-vitamin D3 to monitor its removal from the skin at the high doses of vitamin D3.
Male Wistar rats, 190±10 g were obtained and divided into three groups of 7. They were treated for 2 weeks with one the following: 2000 nmol/day of vitamin D3 by gastric tube; 800 μg/day applied to a 2×2 cm patch of skin on the back; 2600 μg/day skin. The day before killing, 66,000 counts per minute of [^14 C]-vitamin D3 was applied along with the dermal dose to permit a determination of uptake from the skin. The rats were killed after two weeks for analysis of serum, urine, kidney, and aorta. The calcium in urine and acid-treated homogenate of kidney was measured by chemical colorimetry; aorta calcium was measured by treating with nitric acid measuring calcium by atomic absorption.

[4] = oral, in chylomicrons; cited from earlier work

C=C1/C(=C\C=C2/CCC[C@]3(C)[C@@H]([C@H](C)CCCC(C)(C)O)CC[C@@H]23)C[C@@H](O)C[C@@H]1O [1,25(OH)2 D3]
intestinal calcium transport [1]: increased
serum calcium [1]: increased

C[C@H](CCCC(C)(C)O)[C@H]1CC[C@H]2C3=CC=C4CC(O)CC(O)[C@]4(C)[C@H]3CC[C@]12C (stereo partly shown) [1,25-dihydroxylated-7-dehydrocholesterol]
intestinal calcium transport [1]: increased
serum calcium [1]: increased

C=C1CC[C@H](O)[14CH2]/C1=C/C=C1\CCC[C@]2(C)[C@@H]([C@H](C)CCCC(C)C)CC[C@@H]12 [[^14 C]-vitamin D3]
time until [14C]-25(OH)D3 evident in serum ([2]; dermal administration, after dosing): ≥ 24 h
[14C]-25(OH)D3 detection in serum ([2]; oral dosing): detected in every sample
% [14C]-D3 Left on Skin ([3]; dermal 800 μg/day): 47.8%
% [14C]-D3 Left on Skin ([3]; dermal 2600 μg/day): 65.6%
proportion of administered vitamin D3 left in the skin, effect of dose ([3]; dermal 800 vs 2600 μg/day): only marginally affected by the dose

C=C1CC[C@H](O)C/C1=C/C=C1\CCC[C@]2(C)[C@@H]([C@H](C)/C=C/[C@H](C)C(C)C)CC[C@@H]12 [vitamin D2]
activation into 25-hydroxyvitamin D2 [4]: partially activated into 25-hydroxyvitamin D2 relatively quickly
